What was measured:
[1] = Particle size distribution of samidorphan L-malate; format: physicochemical
Excerpt: The particle size distribution of the samidorphan or samidorphan pharmaceutically acceptable salt (e.g., L-malate) present in a disclosed tablet (e.g., as part of a first tablet layer) may be for example, a (D10) of between about 10 μm to about 80 μm, a (D50) of between about 40 μm to about 200 μm and a (D90) of between about 100 μm to about 300 μm, more preferably a D10 of between about 25 μm and about 50 μm; the D50 of between about 60 μm and about 100 μm. In some embodiments, D90 of the samidorphan (e.g., L-malate salt) is between about 120 μm and about 175 μm. […] Particle size (diameter) may be determined by conventional techniques such as dynamic light scattering. The ‘Dx’ nomenclature means that ‘x’ percent of the particles have a number average diameter (‘D’) less than or equal to the reported value when measured by static or dynamic light scattering techniques known to those skilled in the art. (e.g. D10=175 μm, means that 10% of particles have a number average diameter of less than or equal to 175 μm), a D50 (or Dv50) of less than 300 μm, means that 50% of the particle population has a diameter of less than or equal to 300 μm. The term “Dx” as used herein refers to a volume based size and is equivalent to the term “DvX” commonly used to characterize particle sizes. Since the particles of the present invention may be irregular in shape, an approximation of the particle size is made on the basis of the volume-based particle size, which specifies the diameter of the sphere that has same volume as a given particle. Unless otherwise specified, all particle sizes are specified in terms of volume-based measurements and are measured by laser light scattering/diffraction. Particle sizes are then determined based on Mie scattering theory.
For samidorphan L-malate, a recrystallization process was implemented providing particle size control during manufacturing to intentionally target a particle size distribution similar to the size of the drug product filler excipients. Unmilled and recrystallized grades of samidorphan L-malate were characterized for particle size distribution using 3 unique lots of each. The recrystallization was targeted to produce material with less fine particles thus increasing the D10. A slight increase in the D50 and decrease in the D90 adjusted the centerpoint of the distribution and decreased the overall span of the distribution. Overall the recrystallized materials had tighter distributions and reduced lot to lot variability, indicating better control. No change in the solid state form was observed between unmilled and recrystallized samidorphan L-malate as assessed by PXRD spectral comparison.

[2] = Chemical compatibility of olanzapine and samidorphan L-malate, stability at 40° C./75% RH by HPLC; format: physicochemical; conditions: for Percentage Total Impurities: 40° C./75 RH; for Percentage Related Compound B Impurity: 40° C./75% RH, ND: ≤LOD (0.02 wt %), LOQ: 0.05 wt %
Experimental: Samples in 20 ml Wheaton scintillation vials were stored at 40° C./75% RH in open and closed vial configurations. Closed vials were vials closed with a urea cap and wrapped using parafilm under ambient conditions. The contents of the vials were tested at the start of the study and after 2, 6 and 12 weeks. At each time point samples were analysed by reversed phase HPLC (Waters ACQUITY UPLC H-Class System) with ACQUITY PDA Detector using a Waters ACQUITY UPLC CSH C18 Column, 3 mm×100 mm, and a gradient elution of acetate buffer pH 5.1 and 50/50 (v/v) acetonitrile/methanol.

[3] = cited from earlier work

## NC(=O)c1ccc2c(c1O)[C@]13CCN(CC4CC4)[C@H](C2)[C@]1(O)CCC(=O)C3.O=C(O)C[C@H](O)C(=O)O [Sample number 5]
[1]; listed as 5
  Particle size D10: 46 μm
  Particle size D50: 90 μm
  Particle size D90: 160 μm

## NC(=O)c1ccc2c(c1O)[C@]13CCN(CC4CC4)[C@H](C2)[C@]1(O)CCC(=O)C3.O=C(O)C[C@H](O)C(=O)O [Sample number 3]
[1]; listed as 3
  Particle size D10: 6 μm
  Particle size D50: 28 μm
  Particle size D90: 243 μm

## NC(=O)c1ccc2c(c1O)[C@]13CCN(CC4CC4)[C@H](C2)[C@]1(O)CCC(=O)C3.O=C(O)C[C@H](O)C(=O)O [Sample number 6]
[1]; listed as 6
  Particle size D10: 42 μm
  Particle size D50: 90 μm
  Particle size D90: 165 μm

## NC(=O)c1ccc2c(c1O)[C@]13CCN(CC4CC4)[C@H](C2)[C@]1(O)CCC(=O)C3.O=C(O)C[C@H](O)C(=O)O [Sample number 1]
[1]; listed as 1
  Particle size D10: 8 μm
  Particle size D50: 37 μm
  Particle size D90: 223 μm

## NC(=O)c1ccc2c(c1O)[C@]13CCN(CC4CC4)[C@H](C2)[C@]1(O)CCC(=O)C3.O=C(O)C[C@H](O)C(=O)O [Sample number 4]
[1]; listed as 4
  Particle size D10: 33 μm
  Particle size D50: 73 μm
  Particle size D90: 130 μm

## NC(=O)c1ccc2c(c1O)[C@]13CCN(CC4CC4)[C@H](C2)[C@]1(O)CCC(=O)C3.O=C(O)C[C@H](O)C(=O)O [Samidorphan L-malate, morphinan-3-carboxamide, 17-(cyclopropylmethyl)-4, 14-dihydroxy6-oxo-, (2S)-2-hydroxybutanedioate]
[2]; CLOSED vial, 2 WEEK
  Percentage Total Impurities: 0.00%
[2]; CLOSED vial, 6 WEEK
  Percentage Total Impurities: 0.00%
[2]; CLOSED vial, 12 WEEK
  Percentage Total Impurities: 0.00%
[2]; INITIAL
  Percentage Total Impurities: 0.00%
[2]; OPEN vial, 2 WEEK
  Percentage Total Impurities: 0.00%
[2]; OPEN vial, 6 WEEK
  Percentage Total Impurities: 0.00%
[2]; OPEN vial, 12 WEEK
  Percentage Total Impurities: 0.00%
[3]
  pKa (amine): 8.3
  pKa (phenol): 10.1

## NC(=O)c1ccc2c(c1O)[C@]13CCN(CC4CC4)[C@H](C2)[C@]1(O)CCC(=O)C3.O=C(O)C[C@H](O)C(=O)O [Sample number 2]
[1]; listed as 2
  Particle size D10: 10 μm
  Particle size D50: 36 μm
  Particle size D90: 231 μm

## Cc1cc2c(s1)Nc1ccccc1N=C2N1CCN(C)CC1 [Olanzapine, 2-methyl-4-(4-methyl-1-piperazinyl)-10H-thieno[2,3-b][1,5]benzodiazepine]
[2]; INITIAL
  Percentage Related Compound B Impurity: 0.01 wt %
  Percentage Total Impurities: 0.00%
[2]; OPEN vial, 2 WEEK
  Percentage Related Compound B Impurity: <LOQ
  Percentage Total Impurities: 0.00%
[2]; CLOSED vial, 2 WEEK
  Percentage Total Impurities: 0.00%
[2]; CLOSED vial, 6 WEEK
  Percentage Total Impurities: 0.00%
[2]; CLOSED vial, 12 WEEK
  Percentage Total Impurities: 0.00%
[2]; OPEN vial, 6 WEEK
  Percentage Total Impurities: 0.00%
[2]; OPEN vial, 12 WEEK
  Percentage Total Impurities: 0.00%

Source: patent publication US12390474B2, “Immediate release multilayer tablet” (priority 2020, dated 2025)
